Laboratory results from US11999727B2 (Tango Therapeutics, Inc., priority 2020, dated 2024).

What was measured:
[1] = test system: HAP1 MTAP-deleted cell line; experiment: SDMA in-cell western assay, HAP1 MTAP-deleted; assay type: cell-based; details: for IC50: Homo sapiens, HAP1, SDMA in-cell western, HAP1 MTAP-deleted; for MTAP intact/deleted ratio: IC50 ratio HAP1 MTAP-intact / HAP1 MTAP-deleted, SDMA in-cell western
Procedure, shortened: (§1)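 MTAP-null vs endogenous-MTAP HAP1 isogenic cells; in-cell western SDMA readout; IC50 per line.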

[2] = test system: HAP1 MTAP-deleted cell line; experiment: Viability assay, MTAP-deleted cell line; assay type: cell-based; details: Homo sapiens, read-out: HAP1 MTAP deleted viability
Excerpt: Table 1 additionally indicates IC50 values in a viability assay for the MTAP-deleted cell line (column 10), indicating the effect of treatment with compound on cell survival.

[3] = test system: HAP1 MTAP-intact cell line; experiment: SDMA in-cell western assay, HAP1 MTAP-intact; assay type: cell-based; details: Homo sapiens, HAP1, SDMA in-cell western, HAP1 MTAP-intact; read-out: MTAP HAP1 intact IC50
Procedure, shortened: as §1

PRMT5 [4] = molecular target: T1, PRMT5 (Homo sapiens, UniProt O14744); experiment: PRMT5 biochemical IC50 assay with no cofactor; details: PRMT5, no cofactor; read-out: No Cofactor/rel IC50
T1 construct: purchased Viva (custom protein)
Excerpt: Table 1 indicates IC50 values (μM) against PRMT5 for exemplary compounds in the presence of SAM as cofactor, with no cofactor, and with MTA as cofactor, respectively (columns 4-6). […] Ki values can be calculated from the IC50 values as described in the Examples section. As detailed in the Examples section, for the assay performed in the presence of SAM, IC50=Ki×1.5 (Ki=IC50/1.5).

PRMT5 [5] = molecular target: T1, PRMT5; experiment: PRMT5 biochemical IC50 assay with MTA as cofactor; details: PRMT5, MTA as cofactor; read-out: MTA IC50
PRMT5 [6] = molecular target: T1, PRMT5; experiment: PRMT5 biochemical IC50 assay with SAM as cofactor; details: PRMT5, SAM as cofactor; read-out: SAM IC50
[7] = read-out: HAP1 MTAP deleted IC50
[8] = HAP1, viability assay, MTAP-deleted cell line
[9] = read-out: HAP 1 MTAP deleted IC50
[10] = HAP1, viability IC50, MTAP-deleted cell line

T1 sequence (O14744 whole entry): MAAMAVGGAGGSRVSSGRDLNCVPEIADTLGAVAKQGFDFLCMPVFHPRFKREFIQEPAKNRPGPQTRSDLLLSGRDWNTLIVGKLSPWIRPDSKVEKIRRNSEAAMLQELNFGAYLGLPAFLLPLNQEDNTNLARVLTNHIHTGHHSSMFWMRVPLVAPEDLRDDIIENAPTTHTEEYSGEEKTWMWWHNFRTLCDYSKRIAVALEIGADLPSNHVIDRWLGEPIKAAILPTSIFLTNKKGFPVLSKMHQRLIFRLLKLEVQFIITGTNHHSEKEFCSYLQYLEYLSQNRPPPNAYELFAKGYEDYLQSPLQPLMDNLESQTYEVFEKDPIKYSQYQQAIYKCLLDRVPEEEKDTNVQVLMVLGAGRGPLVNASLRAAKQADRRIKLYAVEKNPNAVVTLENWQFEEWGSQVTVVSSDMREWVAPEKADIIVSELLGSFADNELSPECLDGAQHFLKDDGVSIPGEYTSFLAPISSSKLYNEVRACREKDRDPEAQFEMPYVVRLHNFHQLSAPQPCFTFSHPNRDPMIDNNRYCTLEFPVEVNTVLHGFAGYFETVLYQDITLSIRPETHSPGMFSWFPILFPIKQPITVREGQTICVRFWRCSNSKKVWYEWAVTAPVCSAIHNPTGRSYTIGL
T1 sequence (Q9BQA1 whole entry partner): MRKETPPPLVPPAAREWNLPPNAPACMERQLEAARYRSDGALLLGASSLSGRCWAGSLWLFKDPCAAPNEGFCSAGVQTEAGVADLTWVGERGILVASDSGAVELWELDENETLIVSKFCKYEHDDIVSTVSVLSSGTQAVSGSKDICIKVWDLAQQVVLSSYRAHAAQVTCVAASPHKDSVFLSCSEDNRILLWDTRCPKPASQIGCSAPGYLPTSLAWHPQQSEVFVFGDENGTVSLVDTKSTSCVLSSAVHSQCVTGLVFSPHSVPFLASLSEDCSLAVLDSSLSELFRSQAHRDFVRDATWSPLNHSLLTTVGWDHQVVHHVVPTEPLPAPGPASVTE

| Structure (SMILES) | IC50 [1, 7] | MTAP intact/deleted ratio [1] | IC50 [2, 8] | IC50 [3] | IC50 (PRMT5 [4]) | IC50 (PRMT5 [5]) | IC50 (PRMT5 [6]) | IC50 [1, 9] | IC50 [2, 10] |
| --- | --- | --- | --- | --- | --- | --- | --- | --- | --- |
| Cc1cc(NC(=O)C(=O)N2C[C@@H](C)CC[C@@H]2c2ccc3c(c2)CCCN3)cnc1N (single isomer, unassigned) [Compound 503] | > 1 µM | C (an IC50 ratio of less than 3 fold) | > 10 µM | > 1 µM | > 0.5 µM | > 0.5 µM | > 0.5 µM |  |  |
| Cc1cc(NC(=O)C(=O)N2C[C@H](C)CC[C@H]2c2ccc3c(c2)CCCN3)cnc1N (single isomer, unassigned) [Compound 504] | < 0.1 µM | A (an IC50 ratio greater than or equal to 10 fold) | < 1 µM | 0.1 to 1 µM | < 0.05 µM | < 0.05 µM | 0.05 to 0.5 µM |  |  |
| Cc1cc(NC(=O)C(=O)N2C[C@@H](C)CC[C@@H]2c2ccc(NS(C)(=O)=O)cc2)cnc1N (single isomer, unassigned) [Compound 506] | > 1 µM | B (an IC50 ratio greater than or equal to 3 fold but lower than 10 fold) | > 10 µM | > 1 µM | > 0.5 µM | > 0.5 µM | > 0.5 µM |  |  |
| Cc1cc(NC(=O)C(=O)N2C[C@@H](C)CC[C@@H]2c2cccc(C(F)(F)F)c2)cnc1N (single isomer, unassigned) [Compound 507] | > 1 µM | C (an IC50 ratio of less than 3 fold) | > 10 µM | > 1 µM | > 0.5 µM | > 0.5 µM | > 0.5 µM |  |  |
| C[C@@H]1CC[C@@H](c2ccc(C(F)(F)F)cc2)N(C(=O)C(=O)Nc2cncc(C(N)=O)c2)C1 (single isomer, unassigned) [Compound 508] | > 1 µM | C (an IC50 ratio of less than 3 fold) | > 10 µM | > 1 µM | > 0.5 µM | > 0.5 µM | > 0.5 µM |  |  |
| C[C@H]1CC[C@H](c2cccc(C(F)(F)F)c2)N(C(=O)C(=O)Nc2cncc(C(N)=O)c2)C1 (single isomer, unassigned) [Compound 509] | < 0.1 µM | A (an IC50 ratio greater than or equal to 10 fold) | 1 to 10 µM | > 1 µM | 0.05 to 0.5 µM | < 0.05 µM | 0.05 to 0.5 µM |  |  |
| C[C@@H]1CC[C@@H](c2cccc(C(F)(F)F)c2)N(C(=O)C(=O)Nc2cncc(C(N)=O)c2)C1 (single isomer, unassigned) [Compound 510] | > 1 µM | C (an IC50 ratio of less than 3 fold) | > 10 µM | > 1 µM | > 0.5 µM | > 0.5 µM | > 0.5 µM |  |  |
| C[C@H]1CC[C@H](c2ccc(C(F)(F)F)cc2)N(C(=O)C(=O)Nc2cncc(C(N)=O)c2)C1 (single isomer, unassigned) [Compound 511] | 0.1 to 1 µM | A (an IC50 ratio greater than or equal to 10 fold) | 1 to 10 µM | > 1 µM | 0.05 to 0.5 µM | < 0.05 µM | 0.05 to 0.5 µM |  |  |
| C[C@H]1CC[C@H](c2ccc(F)c(Cl)c2)N(C(=O)C(=O)Nc2cncc(C(N)=O)c2)C1 (single isomer, unassigned) [Compound 512] | < 0.1 µM | A (an IC50 ratio greater than or equal to 10 fold) | 1 to 10 µM | > 1 µM | 0.05 to 0.5 µM | < 0.05 µM | 0.05 to 0.5 µM |  |  |
| C[C@@H]1CC[C@@H](c2ccc(F)c(Cl)c2)N(C(=O)C(=O)Nc2cncc(C(N)=O)c2)C1 (single isomer, unassigned) [Compound 513] | > 1 µM | C (an IC50 ratio of less than 3 fold) | > 10 µM | > 1 µM | > 0.5 µM | > 0.5 µM | > 0.5 µM |  |  |
| COc1ncc(NC(=O)C(=O)N2C[C@H](C)CC[C@H]2c2cncs2)cc1C(N)=O (single isomer, unassigned) [Compound 514] | > 1 µM | C (an IC50 ratio of less than 3 fold) | > 10 µM | > 1 µM | > 0.5 µM | > 0.5 µM | > 0.5 µM |  |  |
| COc1ncc(NC(=O)C(=O)N2C[C@@H](C)CC[C@@H]2c2cncs2)cc1C(N)=O (single isomer, unassigned) [Compound 516] | < 0.1 µM | A (an IC50 ratio greater than or equal to 10 fold) | < 1 µM | > 1 µM | < 0.05 µM | < 0.05 µM | < 0.05 µM |  |  |
| Cc1cc(NC(=O)C(=O)N2CCCC[C@H]2c2ccc3[nH]ncc3c2)cnc1N (single isomer, unassigned) [Compound 518] | < 0.1 µM | A (an IC50 ratio greater than or equal to 10 fold) | < 1 µM | > 1 µM | 0.05 to 0.5 µM | < 0.05 µM | 0.05 to 0.5 µM |  |  |
| Cc1cc([C@@H]2CC[C@@H](C)CN2C(=O)C(=O)Nc2cncc(C(N)=O)c2)ccn1 (single isomer, unassigned) [Compound 519] | > 1 µM | C (an IC50 ratio of less than 3 fold) | > 10 µM | > 1 µM | > 0.5 µM | > 0.5 µM | > 0.5 µM |  |  |
| C[C@H]1CC[C@H]([C@@H]2CCC[C@@H](O)C2)N(C(=O)C(=O)Nc2cncc(C(N)=O)c2)C1 (single isomer, unassigned) [Compound 520] | 0.1 to 1 µM | A (an IC50 ratio greater than or equal to 10 fold) | > 10 µM | > 1 µM | 0.05 to 0.5 µM | 0.05 to 0.5 µM | 0.05 to 0.5 µM |  |  |
| Cc1cc(NC(=O)C(=O)N2C[C@H](C)CC[C@H]2c2ccc(NCC(F)(F)F)cc2)cnc1N (single isomer, unassigned) [Compound 522] | 0.1 to 1 µM | A (an IC50 ratio greater than or equal to 10 fold) | 1 to 10 µM | > 1 µM | 0.05 to 0.5 µM | < 0.05 µM | 0.05 to 0.5 µM |  |  |
| CC(=O)Nc1ccc([C@H]2CC[C@H](C)CN2C(=O)C(=O)Nc2cnc(N)c(C)c2)cc1 (single isomer, unassigned) [Compound 523] | > 1 µM | C (an IC50 ratio of less than 3 fold) | > 10 µM | > 1 µM | > 0.5 µM | > 0.5 µM | > 0.5 µM |  |  |
| CC(=O)Nc1ccc([C@@H]2CC[C@@H](C)CN2C(=O)C(=O)Nc2cnc(N)c(C)c2)cc1 (single isomer, unassigned) [Compound 527] | < 0.1 µM | A (an IC50 ratio greater than or equal to 10 fold) | < 1 µM | 0.1 to 1 µM | < 0.05 µM | < 0.05 µM | 0.05 to 0.5 µM |  |  |
| Cc1cc(NC(=O)C(=O)N2C[C@@H](C)CC[C@@H]2c2ccc(NCC(F)(F)F)cc2)cnc1N (single isomer, unassigned) [Compound 528] |  | B (an IC50 ratio greater than or equal to 3 fold but lower than 10 fold) |  | > 1 µM | > 0.5 µM | > 0.5 µM | > 0.5 µM | > 1 µM | 1 to 10 µM |
| C[C@H]1CC[C@H]([C@@H]2CCC[C@H](O)C2)N(C(=O)C(=O)Nc2cncc(C(N)=O)c2)C1 (single isomer, unassigned) [Compound 529] |  | C (an IC50 ratio of less than 3 fold) |  | > 1 µM | > 0.5 µM | > 0.5 µM | > 0.5 µM | > 1 µM | > 10 µM |
| C[C@@H]1CC[C@@H]([C@H]2CCC[C@H](O)C2)N(C(=O)C(=O)Nc2cncc(C(N)=O)c2)C1 (single isomer, unassigned) [Compound 530] |  | C (an IC50 ratio of less than 3 fold) |  | > 1 µM | > 0.5 µM | > 0.5 µM | > 0.5 µM | > 1 µM | > 10 µM |
| C[C@@H]1CC[C@@H]([C@H]2CCC[C@@H](O)C2)N(C(=O)C(=O)Nc2cncc(C(N)=O)c2)C1 (single isomer, unassigned) [Compound 531] |  | B (an IC50 ratio greater than or equal to 3 fold but lower than 10 fold) |  | > 1 µM | > 0.5 µM | 0.05 to 0.5 µM | 0.05 to 0.5 µM | > 1 µM | > 10 µM |
